15 molecules from patent US20250129103A1, “METHODS FOR TREATMENT OF CANCER” (Frontier Medicines Corporation, priority 2022, published 2025) can be followed below.

In brackets after ≈: the same amount, converted by molar mass.

Data set [1] is described as follows: Determination of kinetic solubility (pH 7.4). In kind it is physicochemical. The following applies: phosphate buffer, pH 7.4, aqueous buffer, kinetic from dmso stock, 50 mM phosphate buffer pH 7.4, read-out: Ksol, pH 7.4. The method, boiled down: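 Solubility taken from filtrate peak areas on a calibration curve (HPLC-UV, LC-MS/MS). Before filtration and centrifugation, compound was shaken for 2 h at room temperature in pH 7.4 50 mM phosphate buffer.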

Data set [2] deals with KRAS G12C (GMPPNP-loaded) and cRAF (Ras-binding domain) interaction (Homo sapiens (Human), UniProt P01116, C118S/C51S/C80L/G12C). In words: Inhibition of KRAS G12C and cRAF binding (AlphaScreen). The note with it: KRAS G12C loaded with GMPPNP, cRaf RBD, 2 hours preincubation; read-out: Raf-1 RBD K-Ras IC50. The method, boiled down: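 AlphaScreen readout (680 nm excitation, 570 nm emission) of RBD binding after a 60-90 min bead step at room temperature. This step follows 2 h compound exposure of GMPPNP-preloaded KRAS G12C in Hepes pH 7.4 buffer with MgCl2 and 10 μM GMPPNP.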

Data set [3] is described as follows: Determination of logD (1-octanol / phosphate buffer pH 7.4). Format: physicochemical. The following applies: for logD: 1-octanol/phosphate buffer, pH 7.4, pH 7.4, 1-octanol/phosphate buffer, read-out: Log D, pH 7.4. The method, boiled down: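 Each phase analysed by LCMS after 1 h shaking at 800 rpm and centrifugation, room temperature. Phases were mutually saturated 1-octanol and 100 mM phosphate buffer at pH 7.4. LogD derived from the phase concentrations.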

The target in data set [4] is KRAS G12C (GMPPNP-loaded) and PI3Ka (Ras-binding domain) interaction (Homo sapiens (Human), UniProt P01116, C118S/C51S/C80L/G12C). In words: Inhibition of KRAS G12C and PI3Ka binding (AlphaScreen). The note with it: KRAS G12C loaded with GMPPNP, PI3Ka RBD, 2 hours preincubation; read-out: PI3K RBD K-Ras IC50. Here is the method: The AlphaScreen technology was used to determine IC50S for compound inhibition of KRAS G12C (present as the Cys-light (C51S, C80L and C118S), truncated version comprising amino acids 1-169) and PI3Ka interaction. Compounds were diluted in 100% DMSO and each compound concentration was spotted at 200 nl/well onto low volume, white 384 well plates. The KRAS G12C contained a biotin-AviTag and the PI3Ka, as Ras-binding domain (amino acids 157-300, RBD), was His-tagged. KRAS G12C was preloaded with the GTP analogue Guanosine 5′-[β,γ-imido]triphosphate (GMPPNP). The KRAS G12C was diluted in 25 mM Hepes, pH 7.4, 150 mM NaCl, 5 mM MgCl2, 0.01% TritonX-100 and 10 μM GMPPNP and added at 10 ul/well to compound-spotted plates resulting in a DMSO concentration of 2%. Plates were incubated for 2 hours. A mixture of RBD and the AlphaScreen streptavidin donor and nickel chelate acceptor beads diluted in 25 mM Hepes, pH 7.4, 150 mM NaCl, 5 mM MgCl2, 0.01% TritonX-100 and 2% DMSO was then added at 10 ul/well and incubated for 60-90 minutes before the samples were read for emission at 570 nm after excitation of the donor beads at 680 nm. All incubations were performed at room temperature. The final top compound concentration was 50 μM with 1:3 titrations for 10-point dose response curves. Final assay conditions were 1.5 nM KRAS G12C, 100 nM RBD, 1.25 ug/ml of AlphaScreen donor beads and 10 μg/ml AlphaLISA acceptor beads. IC50s were determined using nonlinear regression fit of [inhibitor] vs. response (4 parameters). […]

Broadly, the IC50 is the concentration that inhibits the measured activity by half. Turning to `Cc1cc(/C=C/C(=O)N2CCN(c3nc(OC[C@@]45CCCN4C[C@H](F)C5)nc4c(F)c(-c5cccc6cccc(F)c56)ncc34)C[C@@H]2CC#N)nc(C)n1` [Compound 214], the solubility kinetic at 2 h in data set [1] came out at 6.14 µg/mL (≈ 8.37 µM). In addition, the half-inhibitory concentration (IC50) in data set [2] was 10 to 100 nM; in data set [4] it was under 10 nM. Also, in data set [3], the logD was 4.02.
For `CC(C)c1noc(/C=C/C(=O)N2CCN(c3nc(OCC45CCCN4CCC5)nc4c3CNC(c3cccc5cccc(Cl)c35)C4F)C[C@@H]2CC#N)n1` (stereo partly drawn) [Compound 124] the same measures were 0.23 µg/mL (≈ 0.311 µM), 10 to 100 nM, 10 to 100 nM and 4.21.
For `CC(C)c1noc(/C=C/C(=O)N2CCN(c3nc(OC[C@]45CCCN4C[C@H](F)C5)nc4c3CCN(c3cccc5ccc(F)c(Cl)c35)C4)C[C@@H]2CC#N)n1` [Compound 131] the same measures were 0.01 µg/mL (≈ 0.0132 µM), 10 to 100 nM, 10 to 100 nM and 4.96.
For `N#CC[C@H]1CN(c2nc(OC[C@@]34CCCN3C[C@H](F)C4)nc3c(F)c(-c4cccc5ccc(F)c(F)c45)ncc23)CCN1C(=O)/C=C/CN1C2COCC1C2` [Compound 224] the same measures were 84.6 µg/mL (≈ 112 µM), under 10 nM, under 10 nM and 2.96.
In the case of `N#CC[C@H]1CN(c2nc(OC[C@@]34CCCN3C[C@H](F)C4)nc3c(F)c(-c4cccc5ccc(F)c(F)c45)ncc23)CCN1C(=O)/C=C/CN1CCSCC1` [Compound 238], in data set [1], the solubility kinetic at 2 h was 21.3 µg/mL (≈ 28 µM). Also, the IC50 in data set [2] and in data set [4] was under 10 nM throughout. The logD in data set [3] is 3.48.
As to `N#CC[C@H]1CN(c2nc(OC[C@@]34CCCN3C[C@H](F)C4)nc3c(F)c(-c4cccc5ccc(F)c(F)c45)ncc23)CCN1C(=O)/C=C/CN1[C@@H]2CC[C@H]1COC2` [Compound 93, 2-((S)-1-((E)-4-((1R,5S)-3-oxa-8-azabicyclo[3.2.1]octan-8-yl)but-2-enoyl)-4-(7-(7,8-difluoronaphthalen-1-yl)-8-fluoro-2-(((2R,7aS)-2-fluorotetrahydro-1H-pyrrolizin-7a(5H)-yl)methoxy)pyrido[4,3-d]pyrimidin-4-yl)piperazin-2-yl)acetonitrile], in data set [1], the solubility kinetic at 2 h was 72.4 µg/mL (≈ 94 µM). Moreover, the concentration for half-maximal inhibition (IC50) in data set [2] and in data set [4] was under 10 nM in each case. For the same molecule, the logD in data set [3] was found to be 3.07.
In the case of `CCO[C@@H]1CCN(C/C=C/C(=O)N2CCN(c3nc(OC[C@@]45CCCN4C[C@H](F)C5)nc4c(F)c(-c5cccc6cccc(Cl)c56)ncc34)C[C@@H]2CC#N)C1` [Compound 92, 2-((S)-4-(7-(8-chloronaphthalen-1-yl)-8-fluoro-2-(((2R,7aS)-2-fluorohexahydro-1H-pyrrolizin-7a-yl)methoxy)pyrido[4,3-d]pyrimidin-4-yl)-1-((E)-4-((R)-3-ethoxypyrrolidin-1-yl)but-2-enoyl)piperazin-2-yl)acetonitrile], the solubility kinetic at 2 h in data set [1] was found to be 104 µg/mL (≈ 135 µM). The IC50 in data set [2] and in data set [4] was under 10 nM in each case. Moreover, the logD in data set [3] worked out at 3.35.
Take `CC(F)(F)c1noc(/C=C/C(=O)N2CCN(c3nc(OC[C@@]45CCCN4C[C@H](F)C5)nc4c(F)c(-c5cccc6cccc(Cl)c56)ncc34)C[C@@H]2CC#N)n1` [Example 14, 2-((S)-4-(7-(8-chloronaphthalen-1-yl)-8-fluoro-2-(((2R,7aS)-2-fluorotetrahydro-1H-pyrrolizin-7a(5H)-yl)methoxy)pyrido[4,3-d]pyrimidin-4-yl)-1-((E)-3-(3-(1,1-difluoroethyl)-1,2,4-oxadiazol-5-yl)acryloyl)piperazin-2-yl)acetonitrile]: the solubility kinetic at 2 h in data set [1] is 0.04 µg/mL (≈ 0.0515 µM). For the same molecule, the half-inhibitory concentration (IC50) in data set [2] and in data set [4] was under 10 nM throughout. The logD in data set [3] came to 4.49.
As to `Cc1nsc(/C=C/C(=O)N2CCN(c3nc(OCC45CCCN4CCC5)nc4c(F)c(-c5cccc6cccc(Cl)c56)ncc34)C[C@@H]2CC#N)n1` [Compound 143], the solubility kinetic at 2 h in data set [1] turned out to be 87.8 µg/mL (≈ 121 µM). Also, the half-inhibitory concentration (IC50) in data set [2] and in data set [4] was under 10 nM in each case. Besides, in data set [3], the logD came out at 2.39.
As to `Cc1cc(N)nc(C2Cc3nc(OC[C@@]45CCCN4C[C@H](F)C5)nc(N4CCN(C(=O)/C=C/C5CCN5C)[C@@H](CC#N)C4)c3CC2C)c1C(F)(F)F` (mixture of isomers) [Example 68, 2-((2S)-4-(7-(6-amino-4-methyl-3-(trifluoromethyl)pyridin-2-yl)-2-(((2R,7aS)-2-fluorohexahydro-1H-pyrrolizin-7a-yl)methoxy)-6-methyl-5,6,7,8-tetrahydroquinazolin-4-yl)-1-((E)-3-(1-methylazetidin-2-yl)acryloyl)piperazin-2-yl)acetonitrile], the IC50 in data set [2] and in data set [4] was under 10 nM in each case. For the same molecule, in data set [3], the logD was 3.09.
Regarding “2-((S)-4-(7-(8-chloro-7-fluoronaphthalen-1-yl)-8-fluoro-2-(((2R,7aS)-2-fluorotetrahydro-1H-pyrrolizin-7a(5H)-yl)methoxy)pyrido[4,3-d]pyrimidin-4-yl)-1-((E)-4-((3aR,6aS)-tetrahydro-1H-furo[3,4-c]pyrrol-5(3H)-yl)but-2-enoyl)piperazin-2-yl)acetonitrile [Example 84]”, the IC50 in data set [2] and in data set [4] was under 10 nM throughout. In data set [3] (pH 7.4, 1-octanol/phosphate buffer), the “Log D, pH 7.4” value was 2.97.
For `Cc1noc(/C=C/C(=O)N2CCN(c3nc(OC[C@@]45CCCN4C[C@H](F)C5)nc4c3CCN(c3cccc5cccc(Cl)c35)C4)C[C@@H]2CC#N)n1` [Compound 2, 2-((S)-4-(7-(8-chloronaphthalen-1-yl)-2-(((2R,7aS)-2-fluorohexahydro-1H-pyrrolizin-7a-yl)methoxy)-5,6,7,8-tetrahydropyrido[3,4-d]pyrimidin-4-yl)-1-((E)-3-(3-methyl-1,2,4-oxadiazol-5-yl)acryloyl)piperazin-2-yl)acetonitrile], the figures for the IC50 in data set [2] and in data set [4] were 10 to 100 nM and under 10 nM, respectively. Moreover, in data set [3], the logD came out at 4.42.
`C[C@H]1CN(C/C=C/C(=O)N2CCN(c3nc(OC[C@@]45CCCN4C[C@H](F)C5)nc4c(F)c(-c5cccc6ccc(F)c(Cl)c56)ncc34)C[C@@H]2CC#N)C[C@H](C)O1` [Example 75, 2-((S)-4-(7-(8-chloro-7-fluoronaphthalen-1-yl)-8-fluoro-2-(((2R,7aS)-2-fluorotetrahydro-1H-pyrrolizin-7a(5H)-yl)methoxy)pyrido[4,3-d]pyrimidin-4-yl)-1-((E)-4-((2S,6S)-2,6-dimethylmorpholino)but-2-enoyl)piperazin-2-yl)acetonitrile]: the IC50 in data set [2] and in data set [4] was under 10 nM each time.
Take `CC1(C)CN(C/C=C/C(=O)N2CCN(c3nc(OCC45CCCN4CCC5)nc4c3CCN(c3cccc5cccc(Cl)c35)C4)C[C@@H]2CC#N)CCO1` [Compound 165]: the IC50 in data set [2] and in data set [4] was under 10 nM throughout.
For the molecule `Cc1nccc(/C=C/C(=O)N2CCN(c3nc(OC[C@@]45CCCN4C[C@H](F)C5)nc4c(F)c(-c5cccc(Cl)c5C5CC5)ncc34)C[C@@H]2CC#N)n1` [Compound 104, 2-((S)-4-(7-(3-chloro-2-cyclopropylphenyl)-8-fluoro-2-(((2R,7aS)-2-fluorotetrahydro-1H-pyrrolizin-7a(5H)-yl)methoxy)pyrido[4,3-d]pyrimidin-4-yl)-1-((E)-3-(2-methylpyrimidin-4-yl)acryloyl)piperazin-2-yl)acetonitrile], the half-maximal inhibitory concentration (IC50) in data set [2] and in data set [4] was under 10 nM throughout.
